Measured values taken from paper PMC3651882 (Bioconjugate chemistry, 2013).

Columns and labels:
Type in all cases: cell-based, human
KB-V1 cells [1] = experiment: Cellular uptake by flow cytometry; conditions: for Time dependence of cell fluorescence intensity (in words): 5 μM, 1, 2 and 4 h
KB-V1 cells [2] = experiment: Subcellular colocalization, confocal microscopy; conditions: 15 μM, 2 h, Lysotracker Green, Hoechst 33342
KB-V1 cells [3] = experiment: Cytotoxicity, SRB method; conditions: 50 μM, 2 h incubation
KB-3-1 cells [4] = experiment: Cytotoxicity, SRB method; conditions: 50 NM as printed, 2 h incubation
KB-3-1 cells [5] = experiment: Cellular uptake by flow cytometry; conditions: 2.5-15 μM, 2 h
KB-3-1 cells [6] = experiment: Subcellular colocalization, confocal microscopy; conditions: 15 μM, 2 h, Lysotracker Green, Hoechst 33342

## O=C(O)c1ccc2c(c1)C(=O)OC21c2ccc(O)cc2Oc2cc(O)ccc21 [5-FAM, 5-carboxyfluorescein]
KB-V1 cells [1]
  Time dependence of cell fluorescence intensity (in words): did not change with time

## COc1cccc2c1C(=O)c1c(O)c3c(c(O)c1C2=O)C[C@@](O)(C(=O)CO)C[C@@H]3O[C@H]1C[C@H](N)[C@H](O)[C@H](C)O1 [Dox, doxorubicin]
KB-V1 cells [2]
  Subcellular location (in words): dim red fluorescence was observed only on the membrane
KB-V1 cells [1]
  Time dependence of cell fluorescence intensity (in words): did not change with time
KB-V1 cells [1]; 2.5-15 μM, 2 h
  Cellular uptake (in words): greatly inhibited
KB-V1 cells [3]
  Cytotoxicity (in words): no significant cytotoxicity
KB-V1 cells [3]; then 46 h fresh medium, SRB
  Cells killed (cell death): 14%
KB-3-1 cells [4]
  Cytotoxicity (in words): nearly all the cells were killed
KB-3-1 cells [5]
  Cellular uptake (in words): very efficient
KB-3-1 cells [6]
  Subcellular location (in words): no preference to accumulate in any subcellular organelles
